Reference: patent publication US10604524B2, “Pyrropyrimidine compounds as MNKs inhibitors” (LIFEARC, priority 2015, dated 2020)

What was measured:
MKNK2 = MKNK2 (Homo sapiens, UniProt Q9HBH9); assay: Kinase selectivity screen; type: biochemical; conditions: 1 μM compound
PTK2 = PTK2 (Homo sapiens, UniProt Q05397); assay: Kinase selectivity screen; conditions: read-out: % Inhibition PTK2
STK10 = STK10 (Homo sapiens, UniProt O94804); assay: Kinase selectivity screen; conditions: read-out: % Inhibition STK10
STK17A = STK17A (Homo sapiens, UniProt Q9UEE5); assay: Kinase selectivity screen; conditions: read-out: % Inhibition STK17A
CSF1R = CSF1R (Homo sapiens, UniProt P07333); assay: Kinase selectivity screen; conditions: read-out: % Inhibition CSF1R
EPHB1 = EPHB1 (Homo sapiens, UniProt P54762); assay: Kinase selectivity screen; conditions: read-out: % Inhibition EPHB1
EGFR = EGFR (Homo sapiens, UniProt P00533); assay: Kinase selectivity screen; conditions: read-out: % Inhibition EGFR
KDR = KDR (Homo sapiens, UniProt P35968); assay: Kinase selectivity screen; conditions: read-out: % Inhibition KDR
SGK1 = SGK1 (Homo sapiens, UniProt O00141); assay: Kinase selectivity screen; conditions: read-out: % Inhibition SGK1
PIK3CB = PIK3CB (Homo sapiens, UniProt P42338); assay: Kinase selectivity screen; conditions: read-out: % Inhibition PIK3CB
RET = RET (Homo sapiens, UniProt P07949); assay: Kinase selectivity screen; conditions: read-out: % Inhibition RET
GSK3B = GSK3B (Homo sapiens, UniProt P49841); assay: Kinase selectivity screen; conditions: read-out: % Inhibition GSK3B
IKBKB = IKBKB (Homo sapiens, UniProt O14920); assay: Kinase selectivity screen; conditions: read-out: % Inhibition IKBKB
LYN = LYN (Homo sapiens, UniProt P07948); assay: Kinase selectivity screen; conditions: read-out: % Inhibition LYN
MYLK = MYLK (Homo sapiens, UniProt Q15746); assay: Kinase selectivity screen; conditions: read-out: % Inhibition MYLK
MAPKAPK2 = MAPKAPK2 (Homo sapiens, UniProt P49137); assay: Kinase selectivity screen; conditions: read-out: % Inhibition MAPKAPK2
LCK = LCK (Homo sapiens, UniProt P06239); assay: Kinase selectivity screen; conditions: read-out: % Inhibition LCK
PDGFRB = PDGFRB (Homo sapiens, UniProt P09619); assay: Kinase selectivity screen; conditions: read-out: % Inhibition PDGFRB
PIK3CA = PIK3CA (Homo sapiens, UniProt P42336); assay: Kinase selectivity screen; conditions: read-out: % Inhibition PIK3CA
CDK7/CCNH/MNAT1 = CDK7/CCNH/MNAT1 (Homo sapiens, UniProt P50613); assay: Kinase selectivity screen; conditions: read-out: % Inhibition CDK7/CCNH/MNAT1
MAPK8 = MAPK8 (Homo sapiens, UniProt P45983); assay: Kinase selectivity screen; conditions: read-out: % Inhibition MAPK8
PAK1 = PAK1 (Homo sapiens, UniProt Q13153); assay: Kinase selectivity screen; conditions: read-out: % Inhibition PAK1
GSK3A = GSK3A (Homo sapiens, UniProt P49840); assay: Kinase selectivity screen; conditions: read-out: % Inhibition GSK3A
ALK = ALK (Homo sapiens, UniProt Q9UM73); assay: Kinase selectivity screen; conditions: read-out: % Inhibition ALK
FGFR2 = FGFR2 (Homo sapiens, UniProt P21802); assay: Kinase selectivity screen; conditions: read-out: % Inhibition FGFR2
ACVR1B = ACVR1B (Homo sapiens, UniProt P36896); assay: Kinase selectivity screen; conditions: read-out: % Inhibition ACVR1B
STK11 = STK11 (Homo sapiens, UniProt Q15831); assay: Kinase selectivity screen; conditions: read-out: % Inhibition STK11
ABL1 = ABL1 (Homo sapiens, UniProt P00519); assay: Kinase selectivity screen; conditions: read-out: % Inhibition ABL1
PAK7 = PAK7 (Homo sapiens, UniProt Q9P286); assay: Kinase selectivity screen; conditions: read-out: % Inhibition PAK7
CDK2/CCNA2 = CDK2/CCNA2 (Homo sapiens, UniProt P24941); assay: Kinase selectivity screen; conditions: read-out: % Inhibition CDK2/CCNA2
PRKACA = PRKACA (Homo sapiens, UniProt P17612); assay: Kinase selectivity screen; conditions: read-out: % Inhibition PRKACA
AXL = AXL (Homo sapiens, UniProt P30530); assay: Kinase selectivity screen; conditions: read-out: % Inhibition AXL
AURKB = AURKB (Homo sapiens, UniProt Q96GD4); assay: Kinase selectivity screen; conditions: read-out: % Inhibition AURKB
Full-length human MNK1 = Full-length human MNK1 (Homo sapiens, UniProt Q9BUB5, T385D); assay: MNK1 biochemical IC50 assay (Caliper mobility shift)
Full-length human MNK1, sequence (Q9BUB5 1-424 isoform Q9BUB5-2 T344D): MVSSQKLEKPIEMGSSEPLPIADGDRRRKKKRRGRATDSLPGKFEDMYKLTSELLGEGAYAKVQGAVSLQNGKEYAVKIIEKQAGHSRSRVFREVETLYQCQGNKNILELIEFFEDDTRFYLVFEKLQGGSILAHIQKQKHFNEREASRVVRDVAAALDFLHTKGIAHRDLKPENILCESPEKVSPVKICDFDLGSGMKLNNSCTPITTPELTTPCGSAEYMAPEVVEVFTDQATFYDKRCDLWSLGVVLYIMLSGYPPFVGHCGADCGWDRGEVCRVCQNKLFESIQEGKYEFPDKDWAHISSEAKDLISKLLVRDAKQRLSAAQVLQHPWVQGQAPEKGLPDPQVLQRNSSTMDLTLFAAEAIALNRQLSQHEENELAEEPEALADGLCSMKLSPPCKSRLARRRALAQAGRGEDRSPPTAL

IKBKB, sequence (O14920 whole entry, species assumed): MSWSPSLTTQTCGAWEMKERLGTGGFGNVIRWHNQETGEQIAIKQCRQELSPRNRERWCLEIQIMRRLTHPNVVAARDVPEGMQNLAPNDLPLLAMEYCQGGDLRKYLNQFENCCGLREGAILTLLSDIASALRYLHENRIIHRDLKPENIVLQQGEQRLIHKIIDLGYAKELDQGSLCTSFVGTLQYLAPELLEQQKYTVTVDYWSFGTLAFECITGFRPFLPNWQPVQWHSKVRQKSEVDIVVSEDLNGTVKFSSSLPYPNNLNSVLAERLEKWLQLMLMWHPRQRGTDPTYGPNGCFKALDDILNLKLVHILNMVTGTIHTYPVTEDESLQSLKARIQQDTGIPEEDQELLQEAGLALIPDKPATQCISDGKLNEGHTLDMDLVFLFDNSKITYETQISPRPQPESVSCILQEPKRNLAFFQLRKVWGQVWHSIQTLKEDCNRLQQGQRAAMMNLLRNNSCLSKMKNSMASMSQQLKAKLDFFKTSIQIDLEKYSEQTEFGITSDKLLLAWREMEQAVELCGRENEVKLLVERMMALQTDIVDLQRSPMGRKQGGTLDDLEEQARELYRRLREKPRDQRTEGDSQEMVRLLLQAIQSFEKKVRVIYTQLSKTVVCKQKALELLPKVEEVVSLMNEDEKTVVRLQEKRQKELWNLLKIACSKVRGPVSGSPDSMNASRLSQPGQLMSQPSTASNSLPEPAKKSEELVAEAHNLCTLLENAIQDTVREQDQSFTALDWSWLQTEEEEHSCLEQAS
LCK, sequence (P06239 whole entry, species assumed): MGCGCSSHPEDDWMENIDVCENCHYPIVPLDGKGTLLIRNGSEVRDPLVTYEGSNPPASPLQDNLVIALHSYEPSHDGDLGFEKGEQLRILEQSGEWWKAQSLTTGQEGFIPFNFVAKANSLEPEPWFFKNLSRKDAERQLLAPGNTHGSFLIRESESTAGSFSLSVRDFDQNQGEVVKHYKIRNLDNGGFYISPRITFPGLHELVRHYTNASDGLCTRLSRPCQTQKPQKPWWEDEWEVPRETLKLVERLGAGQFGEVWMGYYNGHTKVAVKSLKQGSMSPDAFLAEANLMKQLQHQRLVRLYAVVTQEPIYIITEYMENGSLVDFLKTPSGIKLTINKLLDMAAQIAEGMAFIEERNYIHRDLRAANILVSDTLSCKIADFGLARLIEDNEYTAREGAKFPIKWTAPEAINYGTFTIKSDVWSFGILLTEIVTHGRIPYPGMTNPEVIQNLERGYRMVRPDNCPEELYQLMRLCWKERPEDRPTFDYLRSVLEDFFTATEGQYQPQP
AXL, sequence (P30530 26-894, species assumed): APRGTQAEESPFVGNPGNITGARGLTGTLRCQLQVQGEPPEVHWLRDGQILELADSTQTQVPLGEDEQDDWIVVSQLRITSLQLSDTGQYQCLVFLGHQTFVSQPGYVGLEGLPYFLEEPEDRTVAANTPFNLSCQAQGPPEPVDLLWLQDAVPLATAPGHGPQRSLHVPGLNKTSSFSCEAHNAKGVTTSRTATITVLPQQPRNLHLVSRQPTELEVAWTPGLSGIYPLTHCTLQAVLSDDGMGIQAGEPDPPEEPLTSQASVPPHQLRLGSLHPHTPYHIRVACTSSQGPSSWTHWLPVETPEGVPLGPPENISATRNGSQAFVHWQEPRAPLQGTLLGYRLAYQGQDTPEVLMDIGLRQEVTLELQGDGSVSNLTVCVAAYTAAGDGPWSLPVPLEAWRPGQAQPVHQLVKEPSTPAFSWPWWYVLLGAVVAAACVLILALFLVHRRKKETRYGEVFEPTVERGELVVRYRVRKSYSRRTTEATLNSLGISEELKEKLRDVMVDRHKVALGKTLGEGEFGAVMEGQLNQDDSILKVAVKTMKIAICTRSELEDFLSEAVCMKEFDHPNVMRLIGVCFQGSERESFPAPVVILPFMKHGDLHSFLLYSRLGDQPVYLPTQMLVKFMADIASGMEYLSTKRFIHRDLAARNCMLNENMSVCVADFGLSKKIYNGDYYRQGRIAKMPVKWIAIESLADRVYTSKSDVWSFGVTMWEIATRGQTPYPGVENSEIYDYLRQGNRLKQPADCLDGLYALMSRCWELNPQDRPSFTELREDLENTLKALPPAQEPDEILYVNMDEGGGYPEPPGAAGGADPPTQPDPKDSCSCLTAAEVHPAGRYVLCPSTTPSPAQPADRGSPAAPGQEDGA
GSK3A, sequence (P49840 whole entry, species assumed): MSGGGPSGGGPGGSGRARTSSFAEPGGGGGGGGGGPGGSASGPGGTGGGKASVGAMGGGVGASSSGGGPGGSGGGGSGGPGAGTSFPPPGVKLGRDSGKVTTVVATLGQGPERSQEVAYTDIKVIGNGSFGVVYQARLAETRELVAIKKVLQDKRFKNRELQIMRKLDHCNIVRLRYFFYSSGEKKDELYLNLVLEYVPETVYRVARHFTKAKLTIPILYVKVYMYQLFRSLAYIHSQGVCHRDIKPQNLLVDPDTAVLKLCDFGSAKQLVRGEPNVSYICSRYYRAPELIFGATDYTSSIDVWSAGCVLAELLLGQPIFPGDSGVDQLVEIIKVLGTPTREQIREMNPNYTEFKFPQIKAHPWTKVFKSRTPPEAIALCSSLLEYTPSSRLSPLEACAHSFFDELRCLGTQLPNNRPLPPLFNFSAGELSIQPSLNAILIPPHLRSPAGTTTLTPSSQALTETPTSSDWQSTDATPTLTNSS
MKNK2, sequence (Q9HBH9 whole entry, species assumed): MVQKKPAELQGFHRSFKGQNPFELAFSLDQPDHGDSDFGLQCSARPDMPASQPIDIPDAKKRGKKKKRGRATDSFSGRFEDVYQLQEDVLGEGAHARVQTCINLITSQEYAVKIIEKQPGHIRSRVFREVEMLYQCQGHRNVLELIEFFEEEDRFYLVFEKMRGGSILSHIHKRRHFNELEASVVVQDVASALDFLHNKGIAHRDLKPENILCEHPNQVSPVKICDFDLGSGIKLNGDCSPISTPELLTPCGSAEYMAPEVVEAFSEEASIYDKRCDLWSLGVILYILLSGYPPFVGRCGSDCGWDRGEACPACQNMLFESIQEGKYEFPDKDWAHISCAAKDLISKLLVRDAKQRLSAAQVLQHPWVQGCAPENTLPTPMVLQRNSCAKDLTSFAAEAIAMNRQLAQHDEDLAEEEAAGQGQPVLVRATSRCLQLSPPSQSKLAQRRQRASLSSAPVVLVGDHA
PAK1, sequence (Q13153 whole entry): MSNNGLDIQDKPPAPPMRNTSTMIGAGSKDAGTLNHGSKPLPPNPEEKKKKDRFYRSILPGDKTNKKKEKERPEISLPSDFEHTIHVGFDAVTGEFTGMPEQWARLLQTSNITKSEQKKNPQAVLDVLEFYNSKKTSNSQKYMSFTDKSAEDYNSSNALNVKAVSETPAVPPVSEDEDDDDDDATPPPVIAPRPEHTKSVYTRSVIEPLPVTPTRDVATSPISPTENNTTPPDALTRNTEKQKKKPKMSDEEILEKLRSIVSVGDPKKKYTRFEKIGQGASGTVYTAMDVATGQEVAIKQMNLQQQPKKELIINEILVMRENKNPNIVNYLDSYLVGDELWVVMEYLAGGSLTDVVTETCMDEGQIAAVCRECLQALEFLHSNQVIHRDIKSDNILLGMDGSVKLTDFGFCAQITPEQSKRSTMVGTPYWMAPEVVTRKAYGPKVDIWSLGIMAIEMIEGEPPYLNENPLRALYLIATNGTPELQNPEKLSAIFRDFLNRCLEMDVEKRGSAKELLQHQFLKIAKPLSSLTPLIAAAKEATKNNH
SGK1, sequence (O00141 whole entry, species assumed): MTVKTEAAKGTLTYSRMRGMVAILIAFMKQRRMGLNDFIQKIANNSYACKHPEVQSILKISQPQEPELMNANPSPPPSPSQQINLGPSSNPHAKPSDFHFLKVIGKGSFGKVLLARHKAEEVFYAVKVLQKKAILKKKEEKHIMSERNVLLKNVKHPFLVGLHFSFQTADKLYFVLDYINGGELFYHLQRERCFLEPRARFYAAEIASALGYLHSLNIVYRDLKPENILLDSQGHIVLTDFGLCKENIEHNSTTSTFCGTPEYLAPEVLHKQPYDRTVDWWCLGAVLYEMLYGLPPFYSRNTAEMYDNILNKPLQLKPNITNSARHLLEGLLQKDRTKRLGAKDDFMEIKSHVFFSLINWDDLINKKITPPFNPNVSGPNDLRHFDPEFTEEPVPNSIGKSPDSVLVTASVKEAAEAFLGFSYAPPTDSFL
MAPK8, sequence (P45983 whole entry, species assumed): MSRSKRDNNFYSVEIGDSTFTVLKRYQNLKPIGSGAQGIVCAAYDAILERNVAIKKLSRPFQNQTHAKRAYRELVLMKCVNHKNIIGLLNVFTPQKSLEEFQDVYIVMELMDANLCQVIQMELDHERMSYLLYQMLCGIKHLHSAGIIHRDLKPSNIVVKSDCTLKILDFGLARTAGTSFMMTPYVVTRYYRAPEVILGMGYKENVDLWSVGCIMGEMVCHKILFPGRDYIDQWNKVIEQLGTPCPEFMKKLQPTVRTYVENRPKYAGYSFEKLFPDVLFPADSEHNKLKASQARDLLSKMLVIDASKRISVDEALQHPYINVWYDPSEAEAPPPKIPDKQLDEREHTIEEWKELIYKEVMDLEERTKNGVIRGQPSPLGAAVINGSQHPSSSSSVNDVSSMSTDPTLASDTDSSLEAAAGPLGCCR

CC(C)Oc1cc(F)ccc1Nc1ncnc2cc(C(=O)NCCCN(C)C)n(C)c12 [Example 40, N-[3-(dimethylamino)propyl]-4-{[4-fluoro-2-(propan-2-yloxy)phenyl]amino}-5-methyl-5H-pyrrolo[3,2-d]pyrimidine-6-carboxamide]
7%: inhibition at 1 µM (PTK2)
84%: inhibition at 1 µM (MKNK2)
2%: inhibition at 1 µM (STK17A)
0%: inhibition at 1 µM (STK10) | inhibition at 1 µM (EPHB1) | inhibition at 1 µM (EGFR) | inhibition at 1 µM (SGK1) | inhibition at 1 µM (GSK3B) | inhibition at 1 µM (IKBKB) | inhibition at 1 µM (MYLK) | inhibition at 1 µM (MAPKAPK2) | inhibition at 1 µM (LCK) | inhibition at 1 µM (MAPK8) | inhibition at 1 µM (PAK1) | inhibition at 1 µM (GSK3A) | inhibition at 1 µM (ALK) | inhibition at 1 µM (FGFR2) | inhibition at 1 µM (ACVR1B) | inhibition at 1 µM (STK11) | inhibition at 1 µM (ABL1) | inhibition at 1 µM (PAK7) | inhibition at 1 µM (CDK2/CCNA2) | inhibition at 1 µM (PRKACA) | inhibition at 1 µM (AXL)
8%: inhibition at 1 µM (CSF1R)
11%: inhibition at 1 µM (LYN)
50.1 nM: IC50 (Full-length human MNK1)
1%: inhibition at 1 µM (PIK3CB) | inhibition at 1 µM (RET)
14%: inhibition at 1 µM (AURKB)
5%: inhibition at 1 µM (KDR) | inhibition at 1 µM (PDGFRB) | inhibition at 1 µM (PIK3CA) | inhibition at 1 µM (CDK7/CCNH/MNAT1)
